Assay results reported in US20240052305A1, “CHEMICAL INDUCTION METHOD FOR PHOTORECEPTOR NEURON CELLS” (IREGENE THERAPEUTICS LTD, priority 2020, published 2024).

System: photoreceptor neuron cells
Assay: Screening test of vitamin B12 concentration (Q-PCR of photoreceptor neuron cells)
Type: cell-based, human
Experimental: The screening test of vitamin B12 concentration was carried out with reference to Example 2.3, and the expression difference of photoreceptor neuron cells obtained by using different concentrations of vitamin B12 was compared. See Table 2 and Table 4 for the details of primers used. […] Therefore, the concentration of vitamin B12 used in the present invention was the optimal concentration.

vitamin B12
photoreceptor non-specific marker PAX6 versus concentration (Q-PCR, FIG. 6b): positively correlated
relative expression of PAX6 (concentration too high): decrease in the relative expression of PAX6
